Measurements from the supplement of paper PMC4862054.

Key:
Settings in all cases: incubation time: 72 h
[1] = tested on: BT-474; assay: normalised response (% of control), CellTox Green; higher = less cell death (100 = DMSO, 0 = benzethonium chloride kill control)
Procedure, shortened: (§1)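 A 20 µl suspension of breast cancer cells was seeded into each well of 384-well plates containing compound at 5 concentrations in 10-fold steps over a compound-specific 10,000-fold range. After 72 h incubation, CellTox Green fluorescence (485/520 nm) was read first, and CellTiter-Glo luminescence was read after 10 min at room temperature. Each plate was normalised against 0.1 % DMSO (100) and a positive kill control (0), and each value is the normalised signal at one concentration.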

[2] = tested on: BT-549; assay: as above
Procedure, shortened: as §1

[3] = tested on: CAL-120; assay: as above
Procedure, shortened: as §1

[4] = tested on: CAL-148; assay: as above
Procedure, shortened: as §1

[5] = tested on: CAL-51; assay: as above
Procedure, shortened: as §1

[6] = tested on: CAL-85-1; assay: as above
Procedure, shortened: as §1

[7] = tested on: DU-4475; assay: as above
Procedure, shortened: as §1

[8] = tested on: HCC1143; assay: as above
Procedure, shortened: as §1

[9] = tested on: HCC1599; assay: as above
Procedure, shortened: as §1

[10] = tested on: HCC1937; assay: as above
Procedure, shortened: as §1

[11] = tested on: HDQ-P1; assay: as above
Procedure, shortened: as §1

[12] = tested on: Hs578T; assay: as above
Procedure, shortened: as §1

[13] = tested on: MCF-10A; assay: as above
Procedure, shortened: as §1

[14] = tested on: MDA-MB-231; assay: as above
Procedure, shortened: as §1

[15] = tested on: MDA-MB-436; assay: as above
Procedure, shortened: as §1

[16] = tested on: MDA-MB-453; assay: as above
Procedure, shortened: as §1

[17] = tested on: MDA-MB-468; assay: as above
Procedure, shortened: as §1

[18] = tested on: MFM-223; assay: as above
Procedure, shortened: as §1

[19] = tested on: BT-474; assay: normalised response (% of control), CellTiter-Glo; higher = more viable cells (100 = DMSO, 0 = benzethonium chloride kill control)
Procedure, shortened: as §1

[20] = tested on: BT-549; assay: as above
Procedure, shortened: as §1

[21] = tested on: CAL-120; assay: as above
Procedure, shortened: as §1

[22] = tested on: CAL-148; assay: as above
Procedure, shortened: as §1

[23] = tested on: CAL-51; assay: as above
Procedure, shortened: as §1

[24] = tested on: CAL-85-1; assay: as above
Procedure, shortened: as §1

[25] = tested on: DU-4475; assay: as above
Procedure, shortened: as §1

[26] = tested on: HCC1143; assay: as above
Procedure, shortened: as §1

[27] = tested on: HCC1599; assay: as above
Procedure, shortened: as §1

[28] = tested on: HCC1937; assay: as above
Procedure, shortened: as §1

[29] = tested on: HDQ-P1; assay: as above
Procedure, shortened: as §1

[30] = tested on: Hs578T; assay: as above
Procedure, shortened: as §1

[31] = tested on: MCF-10A; assay: as above
Procedure, shortened: as §1

[32] = tested on: MDA-MB-231; assay: as above
Procedure, shortened: as §1

[33] = tested on: MDA-MB-436; assay: as above
Procedure, shortened: as §1

[34] = tested on: MDA-MB-453; assay: as above
Procedure, shortened: as §1

[35] = tested on: MDA-MB-468; assay: as above
Procedure, shortened: as §1

[36] = tested on: MFM-223; assay: as above
Procedure, shortened: as §1

[37] = tested on: SK-BR-3; assay: as above
Procedure, shortened: as §1

## c1cc(CN2CCCNCCNCCCNCC2)ccc1CN1CCCNCCNCCCNCC1 [Plerixafor] (100 nM)
[1]
  normalised response: 85.5%
[2]
  normalised response: 95.9%
[3]
  normalised response: 93.5%
[4]
  normalised response: 94.4%
[5]
  normalised response: 59.6%
[6]
  normalised response: 92.5%
[7]
  normalised response: 91.7%
[8]
  normalised response: 95.1%
[9]
  normalised response: 88.9%
[10]
  normalised response: 73.9%
[11]
  normalised response: 101%
[12]
  normalised response: 99.3%
[13]
  normalised response: 97.7%
[14]
  normalised response: 96.5%
[15]
  normalised response: 74.2%
[16]
  normalised response: 91.3%
[17]
  normalised response: 89.8%
[18]
  normalised response: 50.4%
[19]
  normalised response: 98.8%
[20]
  normalised response: 109%
[21]
  normalised response: 100%
[22]
  normalised response: 89.8%
[23]
  normalised response: 67.7%
[24]
  normalised response: 101%
[25]
  normalised response: 88.1%
[26]
  normalised response: 104%
[27]
  normalised response: 95.3%
[28]
  normalised response: 96.6%
[29]
  normalised response: 103%
[30]
  normalised response: 94.8%
[31]
  normalised response: 79.7%
[32]
  normalised response: 97.1%
[33]
  normalised response: 92%
[34]
  normalised response: 83%
[35]
  normalised response: 97.6%
[36]
  normalised response: 85.1%
[37]
  normalised response: 84.1%

## Cn1cc(CNCC2CCN(c3ncc(C(=O)NO)cn3)CC2)c2ccccc21 [Quisinostat] (10 nM)
[1]
  normalised response: 93%
[2]
  normalised response: 95.5%
[3]
  normalised response: 91.4%
[4]
  normalised response: 95.8%
[5]
  normalised response: 126%
[6]
  normalised response: 77.9%
[7]
  normalised response: 97.8%
[8]
  normalised response: 114%
[9]
  normalised response: 104%
[10]
  normalised response: 114%
[11]
  normalised response: 109%
[12]
  normalised response: 88.8%
[13]
  normalised response: 96.7%
[14]
  normalised response: 101%
[15]
  normalised response: 92.3%
[16]
  normalised response: 97.7%
[17]
  normalised response: 57.7%
[18]
  normalised response: 103%
[19]
  normalised response: 106%
[20]
  normalised response: 88%
[21]
  normalised response: 86.2%
[22]
  normalised response: 87.6%
[23]
  normalised response: 99.2%
[24]
  normalised response: 72.5%
[25]
  normalised response: 83.9%
[26]
  normalised response: 75.8%
[27]
  normalised response: 89.8%
[28]
  normalised response: 85.2%
[29]
  normalised response: 75.4%
[30]
  normalised response: 85.7%
[31]
  normalised response: 78.8%
[32]
  normalised response: 103%
[33]
  normalised response: 87.2%
[34]
  normalised response: 56.9%
[35]
  normalised response: 91.2%
[36]
  normalised response: 103%
[37]
  normalised response: 70.1%

## Cc1nc(Nc2ncc(C(=O)Nc3c(C)cccc3Cl)s2)cc(N2CCN(CCO)CC2)n1 [Dasatinib] (10 nM)
[1]
  normalised response: 102%
[2]
  normalised response: 111%
[3]
  normalised response: 100%
[4]
  normalised response: 93.9%
[5]
  normalised response: 86.6%
[6]
  normalised response: 102%
[7]
  normalised response: 110%
[8]
  normalised response: 56.7%
[9]
  normalised response: 97.7%
[10]
  normalised response: 93.1%
[11]
  normalised response: 96.7%
[12]
  normalised response: 84.7%
[13]
  normalised response: 58.3%
[14]
  normalised response: 84.2%
[15]
  normalised response: 98%
[16]
  normalised response: 106%
[17]
  normalised response: 107%
[18]
  normalised response: 98.9%
[19]
  normalised response: 74.5%
[20]
  normalised response: 97.2%
[21]
  normalised response: 93.7%
[22]
  normalised response: 99.2%
[23]
  normalised response: 82%
[24]
  normalised response: 95.7%
[25]
  normalised response: 99.4%
[26]
  normalised response: 90.2%
[27]
  normalised response: 94.3%
[28]
  normalised response: 90.5%
[29]
  normalised response: 74.8%
[30]
  normalised response: 94.3%
[31]
  normalised response: 71.5%
[32]
  normalised response: 70.6%
[33]
  normalised response: 97.1%
[34]
  normalised response: 99.5%
[35]
  normalised response: 92.2%
[36]
  normalised response: 95%
[37]
  normalised response: 101%

## CCC/C=C/C=C/C(=O)O[C@H]1/C(=C/C(=O)OC)C[C@H]2C[C@H]([C@@H](C)O)OC(=O)C[C@H](O)C[C@@H]3C[C@H](OC(C)=O)C(C)(C)[C@](O)(C[C@@H]4C/C(=C/C(=O)OC)C[C@H](/C=C/C(C)(C)[C@]1(O)O2)O4)O3 [Bryostatin 1] (1 nM)
[1]
  normalised response: 86.8%
[2]
  normalised response: 111%
[3]
  normalised response: 103%
[4]
  normalised response: 111%
[5]
  normalised response: 91%
[6]
  normalised response: 97.7%
[7]
  normalised response: 106%
[8]
  normalised response: 117%
[9]
  normalised response: 111%
[10]
  normalised response: 123%
[11]
  normalised response: 75.6%
[12]
  normalised response: 94%
[13]
  normalised response: 98.5%
[14]
  normalised response: 113%
[15]
  normalised response: 100%
[16]
  normalised response: 94.6%
[17]
  normalised response: 105%
[18]
  normalised response: 104%
[19]
  normalised response: 92.3%
[20]
  normalised response: 101%
[21]
  normalised response: 103%
[22]
  normalised response: 116%
[23]
  normalised response: 58%
[24]
  normalised response: 95.5%
[25]
  normalised response: 91.6%
[26]
  normalised response: 102%
[27]
  normalised response: 99.3%
[28]
  normalised response: 93%
[29]
  normalised response: 88.6%
[30]
  normalised response: 79.6%
[31]
  normalised response: 107%
[32]
  normalised response: 95.9%
[33]
  normalised response: 102%
[34]
  normalised response: 103%
[35]
  normalised response: 99.8%
[36]
  normalised response: 104%
[37]
  normalised response: 66.2%
